Test results as given in patent EP2431387A1, “A raft deficient yeast expression system for the production of recombinant membrane proteins” (Centre National de la Recherche Scientifique (C.N.R.S), priority 2010, dated 2012).
Read-outs that look alike come from different tables or passages of the source.

What was measured:
MTR1A [1] = target: T1, MTR1A (Homo sapiens, UniProt P48039)
Description: (§1) For saturation binding assays, increasing concentrations of radioactive ligands ranging from 1 to 30 nM were added to 10 µg of proteins diluted in binding buffer (30 mM HEPES, pH 7.7, 0.15 M NaCl and 0.1% BSA). […] Non-specific binding was determined by the addition of 10 µM « cold » ligands using spiperone, prazozine, yohimbine and melatonin for DRD2, ADRA1, ADR2B and MTR1A, respectively. After 1-h incubation at RT, the reaction was terminated by rapid filtration of the samples through GF/B filters presoaked in 1 % polyethylenimine. The filters were washed 3 times with ice-cold buffer (Tris-HCI 50 mM, pH 7.4), and the radioactivity was measured by liquid-scintillation counting. The equilibrium dissociation constant, KD and the maximal number of binding sites, Bmax for radioligands were determined. The data were expressed as the mean ± standard error (SE) for at least three independant experiments performed in triplicate. Data were fitted through non-linear regression analysis with the one-site saturation binding model using the Prism 4 program of GraphPad.

MTR1A [2] = target: T1, MTR1A; remark: listed apart in the source
Description: as §1
(§2) Saturation binding experiments were performed on CHAPS/CHS solubilized receptors the same way than described in Example 4 in order to test receptor activity and stability (FIG.5).

DRD2 [3] = target: T2, DRD2 (Homo sapiens, UniProt P14416); assay: Saturation radioligand binding assay on CHAPS/CHS solubilized receptors; settings: DRD2 solubilized (CHAPS/CHS) from membranes of erg6 cells
T2 sequence (P14416 whole entry): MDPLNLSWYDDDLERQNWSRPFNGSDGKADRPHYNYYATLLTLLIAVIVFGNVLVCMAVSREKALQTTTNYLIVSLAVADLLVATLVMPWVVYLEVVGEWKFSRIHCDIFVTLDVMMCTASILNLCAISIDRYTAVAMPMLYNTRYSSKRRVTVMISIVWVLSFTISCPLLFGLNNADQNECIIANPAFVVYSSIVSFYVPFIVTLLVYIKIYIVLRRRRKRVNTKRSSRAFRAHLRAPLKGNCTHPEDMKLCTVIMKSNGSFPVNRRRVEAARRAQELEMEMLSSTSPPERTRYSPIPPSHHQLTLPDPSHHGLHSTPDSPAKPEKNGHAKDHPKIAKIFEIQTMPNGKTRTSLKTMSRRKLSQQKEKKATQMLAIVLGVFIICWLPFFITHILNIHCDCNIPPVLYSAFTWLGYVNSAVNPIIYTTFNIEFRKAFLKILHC
Description: as §1, §2

DRD2 [4] = target: T2, DRD2; assay: Saturation radioligand binding assay on crude membranes of P. pastoris cells; settings: DRD2 expressed in membranes of erg6 cells
Description: as §1

ADRA1A [5] = target: T3, ADRA1A (Homo sapiens, UniProt P35348)
T3 sequence (P35348 whole entry): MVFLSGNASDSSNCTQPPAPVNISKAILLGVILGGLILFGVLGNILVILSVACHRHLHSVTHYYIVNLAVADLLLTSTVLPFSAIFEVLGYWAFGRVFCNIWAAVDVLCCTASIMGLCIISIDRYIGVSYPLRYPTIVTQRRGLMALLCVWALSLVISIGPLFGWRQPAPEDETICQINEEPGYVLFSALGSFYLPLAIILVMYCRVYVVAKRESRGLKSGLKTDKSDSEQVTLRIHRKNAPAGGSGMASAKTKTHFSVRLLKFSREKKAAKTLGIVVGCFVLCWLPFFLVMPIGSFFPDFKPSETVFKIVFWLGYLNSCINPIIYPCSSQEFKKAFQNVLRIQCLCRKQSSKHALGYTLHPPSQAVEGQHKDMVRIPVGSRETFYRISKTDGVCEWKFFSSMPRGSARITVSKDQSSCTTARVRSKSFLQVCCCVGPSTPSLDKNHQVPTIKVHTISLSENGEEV
Description: as §1

ADRA1A [6] = target: T3, ADRA1A; settings: ADRA1A solubilized (CHAPS/CHS) from membranes of erg6 cells
Description: as §1, §2

T1 sequence (P48039 whole entry): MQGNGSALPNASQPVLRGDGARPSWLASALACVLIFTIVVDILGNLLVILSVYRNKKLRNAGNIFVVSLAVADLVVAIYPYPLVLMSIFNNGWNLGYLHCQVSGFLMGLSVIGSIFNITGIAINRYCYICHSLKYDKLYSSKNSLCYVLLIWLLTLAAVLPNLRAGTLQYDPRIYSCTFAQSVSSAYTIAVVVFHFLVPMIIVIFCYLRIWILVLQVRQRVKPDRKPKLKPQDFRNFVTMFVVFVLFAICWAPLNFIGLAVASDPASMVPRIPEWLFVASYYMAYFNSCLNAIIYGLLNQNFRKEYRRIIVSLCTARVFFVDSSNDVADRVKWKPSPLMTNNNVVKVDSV

`COc1ccc2[nH]cc(CCNC(C)=O)c2c1` [[3H]-Melatonin] was tested, and the Bmax (MTR1A [1]; MTR1A expressed in membranes of WT cells) was 4.86 ± 0.38 pmol/mg, the Bmax (MTR1A [1]; MTR1A expressed in membranes of erg6 cells) was 1.35 ± 0.30 pmol/mg and the Bmax (MTR1A [2]; MTR1A solubilized (CHAPS/CHS) from membranes of WT cells) was 2.91 ± 0.29 pmol/mg. The Bmax (MTR1A [2]; MTR1A solubilized (CHAPS/CHS) from membranes of erg6 cells) was 5.13 ± 0.32 pmol/mg.

Work on `O=C(CCCN1CCC2(CC1)C(=O)NCN2c1ccccc1)c1ccc(F)cc1` [[3H]-Spiperone] yielded a Bmax (DRD2 [3]) of 42.79 ± 4.71 pmol/mg and a Bmax (DRD2 [4]) of 62.20 ± 16.42 pmol/mg.

In the case of `COc1cc2nc(N3CCN(C(=O)c4ccco4)CC3)nc(N)c2cc1OC` [[3H]-Prazozine], the Bmax (ADRA1A [5]; ADRA1A expressed in membranes of WT cells) is reported as 15.72 ± 2.09 pmol/mg, the Bmax (ADRA1A [5]; ADRA1A expressed in membranes of erg6 cells) is reported as 35.74 ± 1.11 pmol/mg and the Bmax (ADRA1A [6]) is reported as 11.34 ± 0.71 pmol/mg.
